Reference: patent US10479792B2, “Compounds” (GlaxoSmithKline Intellectual Property Development Limited, priority 2015, dated 2019)

Columns and labels:
Leishmania donovani [1] = experiment: Intramacrophage Leishmania donovani assay (Assay 1), average number of amastigotes per cell (potency readout); assay type: cell-based; settings: THP-1, 96 h, amastigotes in PMA-differentiated THP-1 macrophages, 96 h incubation, read-out: pEC50 value against Leishmania donovani (converted)
Protocol: Assay 1. Intramacrophage Leishmania donovani Assay
The intramacrophage Leishmania assay was performed using a modified version of the method described in De Rycker et al. (Antimicrob Agents Chemother. 2013 July; 57(7):2913-22. Comparison of a high-throughput high-content intracellular Leishmania donovani assay with an axenic amastigote assay. De Rycker M, Hallyburton I, Thomas J, Campbell L, Wyllie S, Joshi D, Cameron S, Gilbert I H, Wyatt P G, Frearson J A, Fairlamb A H, Gray D W.). Procedure: 350 nl of compound was pre-dispensed into 384 well sterile intermediary plates. For single point screening, amphotericin B was added to all wells of column 24 as a positive control (final concentration 2 μM) and DMSO to column 23. For potency determinations, ten-point, one in three dilution curves were created with the highest concentration being 50 μM and on each plate a control curve of amphotericin B was included. Controls were as follows: columns 11 and 12: DMSO, columns 23 and 24: amphotericin B (final concentration 2 μM). To the intermediary plates, 35 μl of THP-1 media was added and plates were shaken for >5 min to ensure complete mixing. THP-1 cells (8,000 per well, 50 μl) were plated into black clear-bottom 384 well plates (Corning) in presence of 20 nM PMA. After 20 min at RT, the plates were incubated at 37° C. under 5% CO2 in a humidified incubator for 75 h. The cells were then washed with […] sterile phosphate buffered saline (PBS) supplemented with 1 mM CaCl2, 0.5 mM MgCl2, 0.1% (w/v) bovine serum albumin (PBS-A) and amastigotes were added to all wells at a multiplicity of infection of 5 (40,000 amastigotes per well). After 40 min at RT, plates were returned to the incubator. Amastigotes were incubated in the presence of THP-1 macrophages for 16 h. Any remaining extracellular amastigotes were subsequently removed with an overflow wash of 1 mL PBS-A per well (wash buffer is being aspirated from the top of the well as it is being dispensed) followed by addition of 25 μl of the compound pre-dilutions using a Fluidx Ipette-pro pipetting station. The final dilution of each compound was 200-fold. Plates were incubated for 96 h and then washed (250 μl PBS-A) and fixed (4% (v/v) formaldehyde-PBS, 30 min, RT). After fixation, the wells were washed with 250 μl PBS, stained (10 μg/mL DAPI, 0.4 μg mL-1 HCS Cellmask Deep Red in PBS+0.1% (v/v) Triton X-100, 30 min, RT) and washed with 250 μl PBS. Finally, PBS+0.05% (v/v) thimerosal was added to the wells, the plates were sealed and imaged on a high-content microscope (GE IN Cell 2000) using a 10× objective. Image analysis was carried out with GE IN Cell Analyzer 1000 Workstation using the “Multi Target Analysis” module. Settings for segmentation were as follows: nuclei: minimum area: 142.384 μm2, sensitivity: 81, method: top-hat; cells: characteristic area: 2500 μm2, sensitivity: 60, method: multiscale top-hat; organelles (amastigotes): granule size 1-3, 3 scales, sensitivity: 90, detection in entire cell. For each well, i) THP-1 cell count (cytotoxicity readout) and ii) average number of amastigotes per cell (potency readout) were calculated, both in terms of pEC50 values.

THP-1 cells = experiment: Leishmania donovani intracellular assay (Assay 5), THP-1 cytotoxicity; assay type: cell-based; settings: human, 96 h incubation, read-out: cytotoxicity against THP-1 cells, pEC50 (converted)
Protocol: (§1) Assay 5. Leishmania donovani Intracellular Assay
(§2) Compounds were dispensed into black 384-well assay plates (Greiner) by acoustic dispensing (LabCyte ECHO). For potency determinations, eleven-point, one in three dilution curves were generated, with a top concentration of 50 μM. THP-1 human monocytes cells were dispensed in T225 tissue culture flasks and differentiated using 30 nM of PMA, after 24 hours they were infected overnight using Leishmania donovani expressing Green Fluorescent Protein (eGFP) amastigotes in the same T225 tissue culture flasks at a multiplicity of infection of 10. Next, any remaining free amastigotes were washed away with PBS and the infected THP-1 cells were harvested by trypsinisation. The infected cells were then plated into 384-well plates containing the compounds to be tested, at 3000 cells per well in RPMI media with 2% FBS and 25 mM Sodium bicarbonate. After 96 h incubation at 37° C. in presence of 5% CO2, the plates were fixed with 4% formaldehyde for 30 minutes, washed with PBS and stained with 0.1 mg/mL of DAPI for 30 minutes and washed again with PBS. The plates were imaged on a Perkin Elmer Opera high-content imaging system using a 20× air objective with two expositions, one for DAPI stain and other for eGFP. Images were analysed using the Acapella building blocks system (Perkin Elmer). The image analysis algorithm first identified the THP-1 nuclei followed by demarcation of the cytoplasm and identification of intracellular amastigotes. This algorithm reported mean number of parasites per THP-1 cell, the percentage of infected THP-1 cells and the total number of THP-1 cells.

Leishmania donovani [2] = experiment: Leishmania donovani intracellular assay (Assay 5); assay type: cell-based; settings: THP-1, 96 h, eGFP amastigotes in THP-1 cells, 96 h incubation, read-out: pEC50 value against Leishmania donovani (converted)
Protocol: as §1, §2

RnH9c2 cells = experiment: Trypanosoma cruzi intracellular assay (Assay 2), host cell cytotoxicity; assay type: cell-based; settings: rat, H9C2 cardiomyocytes infected with Trypanosoma cruzi, 72 h incubation, read-out: cytotoxicity against RnH9c2 cells, pEC50 (converted)
Protocol: (§3) Compounds were dispensed into black 384-well assay plates (Greiner) by acoustic dispensing (LabCyte ECHO). For potency determinations, eleven-point, one in three dilution curves were generated, with a top concentration of 50 μM. H9C2 rat cardiomyocytes cells were dispensed in T225 tissue culture flasks and after 4 hours they were infected during 18 hours with T. cruzi trypomastigotes in the same T225 tissue culture flasks at a multiplicity of infection of 1. Next, any remaining free trypomastigotes were washed away with PBS and the infected H9C2 cells were harvested by trypsinisation. The infected H9C2 cells were then plated into 384-well plates containing the compounds to be tested, at 2500 cells per well in DMEM media with 2% FBS, 1% Penicillin/Streptomicin, 2 mM L-Glutamine, 1 mM Na Pyruvate and 25 mM HEPES. After 72 h incubation at 37° C. in presence of 5% CO2, the plates were fixed and stained with 4% formaldehyde and 2 μM Draq5 for 3 hours at room temperature. The plates were imaged on a Perkin Elmer Opera high-content imaging system using a 20× air objective. Images were analyzed using the Acapella building blocks system (Perkin Elmer). The image analysis algorithm first identified the H9C2 nuclei followed by demarcation of the cytoplasm and identification of intracellular amastigotes. This algorithm reported mean number of parasites per H9C2 cell, the percentage of infected H9C2 cells and the total number of H9C2 cells.

Trypanosoma cruzi = Trypanosoma cruzi intracellular assay (Assay 2); assay type: cell-based; settings: infected H9C2 rat cardiomyocytes, 72 h incubation, read-out: pEC50 value against Trypanosoma cruzi (converted)
Protocol: as §3

[3] = Solubility assay, ChemiLuminescent Nitrogen Detection (CLND) (Assay 4); assay type: physicochemical; settings: phosphate buffered saline (PBS) pH 7.4, aqueous buffer, kinetic from dmso stock, PBS pH 7.4, from 10 mM DMSO stock, 1 h at room temperature
Protocol: Assay 4. Solubility Assay—ChemiLuminescent Nitrogen Detection (CLND) I. Compounds A 10 mM DMSO stock solution of the compound was prepared. Solvents and Buffers Organic solvents of HPLC grade were used. Ultra pure water (Milli-Q grade) was used. Buffers were prepared with ultra pure water and filtered using 0.45μ cameo filters. Aqueous Buffer Solution: Phosphate Buffer Saline (PBS) @ pH 7.4 was prepared from Sigma dry powder packs, P-3813. Each one was diluted to 1 liter with deionised water. The pH was checked before the solution was used II. Procedures. • a) DMSO concentration was measured. DMSO blanks and ondansetron and caffeine standards were added to the plate (column 12, A, B, C, & D for the blanks and E, F, G, & H for the standards). Plates were covered with foil. When the UV and CLND detectors baselines appeared to be stable, the CLND was zeroed. • b) Once DMSO concentration measurements were complete, a filtration plate was prepared from each parent plate by diluting 5 μl of the 10 mM DMSO stock solution to […] with pH7.4 PBS. • c) After the plates were prepared, they were covered with a plate lid and left to incubate for 1 h at room temperature. • d) Sample was filtered using MILLIPORE MultiScreen Solubility (MSSLBPC10) Filtration Plates, to NUNC V well plates. […]

Structure (SMILES) | EC50 (Leishmania donovani [1]) [µM] | EC50 at 96 h (THP-1 cells) [µM] | EC50 (Leishmania donovani [2]) [µM] | EC50 at 72 h (RnH9c2 cells) [µM] | EC50 (Trypanosoma cruzi) [µM] | solubility at 1 h [3] [µM]
O=C(Nc1ccc(F)c(-c2ccn3c(-c4ccccc4)cnc3n2)c1)N1CCCC1 [Example 3, N-(4-fluoro-3-(3-phenylimidazo[1,2-a]pyrimidin-7-yl)phenyl)pyrrolidine-1-carboxamide] | 0.251 to 10 | 12.6 to 50.1 | 0.126 to 10 | – | – | –
O=C(Nc1ccc(F)c(-c2ccn3c(N4CCCCC4)cnc3n2)c1)N1CCCC1 [Example 5, N-(4-fluoro-3-(3-(piperidin-1-yl)imidazo[1,2-a]pyrimidin-7-yl)phenyl)pyrrolidine-1-carboxamide] | 0.251 to 10 | 12.6 to 50.1 | 0.126 to 10 | – | – | –
O=C(Nc1ccc(F)c(-c2cnn3c(-c4ccccc4)cnc3n2)c1)N1CCCC1 [Example 7, N-(4-fluoro-3-(7-phenylimidazo[1,2-b][1,2,4]triazin-3-yl)phenyl)pyrrolidine-1-carboxamide] | 0.251 to 10 | – | – | 20 | – | –
O=C(Nc1ccc(F)c(-c2ccn3ccnc3n2)c1)N1CCCC1 [Example 16, N-(4-fluoro-3-(imidazo[1,2-a]pyrimidin-7-yl)phenyl)pyrrolidine-1-carboxamide] | 12.6 to 20 | 12.6 to 50.1 | 12.6 to 39.8 | – | – | –
CC(C)Cc1cnc2nc(-c3cc(NC(=O)N4CCCC4)ccc3F)ccn12 [Example 17, N-(4-fluoro-3-(3-isobutylimidazo[1,2-a]pyrimidin-7-yl)phenyl)pyrrolidine-1-carboxamide] | 0.251 to 10 | – | 0.126 to 10 | 5.01 | – | –
O=C(Nc1ccc(F)c(-c2ccn3c(C4CCOCC4)cnc3n2)c1)N1CCCC1 [Example 19, N-(4-fluoro-3-(3-(tetrahydro-2H-pyran-4-yl)imidazo[1,2-a]pyrimidin-7-yl)phenyl)pyrrolidine-1-carboxamide] | 0.251 to 10 | – | 0.126 to 10 | 39.8 | – | –
O=C(Nc1ccc(F)c(-c2ccn3c(N4CCOCC4)cnc3n2)c1)N1CC[C@H](F)C1 [Example 23a] | > 50.1 | – | > 50.1 | – | 31.6 | –
O=C(Nc1ccc(F)c(-c2ccn3c(-c4ccccn4)cnc3n2)c1)N1CCCC1 [Example 26, N-(4-fluoro-3-(3-(pyridin-2-yl)imidazo[1,2-a]pyrimidin-7-yl)phenyl)pyrrolidine-1-carboxamide] | 0.251 to 10 | 12.6 to 50.1 | 0.126 to 10 | 39.8 | – | –
COc1cccc(-c2cnc3nc(-c4cc(NC(=O)N5CCCC5)ccc4F)ccn23)n1.Cl [Example 28, N-(4-fluoro-3-(3-(6-methoxypyridin-2-yl)imidazo[1,2-a]pyrimidin-7-yl)phenyl)pyrrolidine-1-carboxamide] | – | 12.6 to 50.1 | 0.126 to 10 | 7.94 | – | < 1
C[C@H]1CCCN1C(=O)Nc1ccc(F)c(-c2ccn3c(N4CCOCC4)cnc3n2)c1 [Example 33a] | > 50.1 | – | 12.6 to 39.8 | – | 12.6 | –
Cc1cccc(-c2cnc3nc(-c4cc(NC(=O)N5CCCC5)ccc4F)ccn23)n1 [Example 37, N-(4-fluoro-3-(3-(6-methylpyridin-2-yl)imidazo[1,2-a]pyrimidin-7-yl)phenyl)pyrrolidine-1-carboxamide] | – | 12.6 to 50.1 | 0.126 to 10 | 25.1 | – | –
